From ChEMBL document CHEMBL1153301, “Identification and SAR of novel diaminopyrimidines. Part 1: The discovery of RO-4, a dual P2X(3)/P2X(2/3) antagonist for the treatment of pain” (Bioorg Med Chem Lett, 2009)

Legend:
P2X purinoceptor 3 = molecular target: T1, P2X purinoceptor 3 (Rattus norvegicus, UniProt P49654); experiment: Antagonist activity at rat recombinant P2X3 receptor expressed in CHO cells by FLIPR assay
T1 sequence (P49654 whole entry): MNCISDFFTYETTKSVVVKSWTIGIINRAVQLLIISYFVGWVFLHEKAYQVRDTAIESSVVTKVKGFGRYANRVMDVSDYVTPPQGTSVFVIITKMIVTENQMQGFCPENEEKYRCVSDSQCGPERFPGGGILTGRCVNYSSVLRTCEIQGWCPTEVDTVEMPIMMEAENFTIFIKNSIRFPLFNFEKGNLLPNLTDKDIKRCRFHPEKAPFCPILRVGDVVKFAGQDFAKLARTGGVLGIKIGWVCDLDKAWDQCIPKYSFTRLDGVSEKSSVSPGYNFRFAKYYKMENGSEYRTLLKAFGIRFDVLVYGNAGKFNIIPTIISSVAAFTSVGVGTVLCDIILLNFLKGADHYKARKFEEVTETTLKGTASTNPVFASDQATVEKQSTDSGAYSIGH

[1] = molecular target: T2, P2X2/P2X3 heterotrimeric receptor (Homo sapiens, UniProt P56373+Q9UBL9); experiment: Antagonist activity at human recombinant P2X2/3 receptor expressed in human 1321N1 cells by FLIPR assay; assay type: functional, cell-based
T2 sequence (Q9UBL9 whole entry): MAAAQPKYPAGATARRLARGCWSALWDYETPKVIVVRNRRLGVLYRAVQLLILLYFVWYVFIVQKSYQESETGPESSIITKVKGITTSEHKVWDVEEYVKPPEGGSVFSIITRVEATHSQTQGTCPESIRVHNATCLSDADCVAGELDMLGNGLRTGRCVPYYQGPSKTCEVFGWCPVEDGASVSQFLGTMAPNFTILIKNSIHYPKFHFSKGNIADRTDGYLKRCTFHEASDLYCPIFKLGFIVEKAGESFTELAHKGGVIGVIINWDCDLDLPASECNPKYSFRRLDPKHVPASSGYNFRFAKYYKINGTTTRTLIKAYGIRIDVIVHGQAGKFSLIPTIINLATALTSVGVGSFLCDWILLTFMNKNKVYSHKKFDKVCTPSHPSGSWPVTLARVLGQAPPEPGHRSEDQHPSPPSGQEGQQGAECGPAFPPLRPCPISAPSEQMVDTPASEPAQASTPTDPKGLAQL
T2 sequence (P56373 whole entry): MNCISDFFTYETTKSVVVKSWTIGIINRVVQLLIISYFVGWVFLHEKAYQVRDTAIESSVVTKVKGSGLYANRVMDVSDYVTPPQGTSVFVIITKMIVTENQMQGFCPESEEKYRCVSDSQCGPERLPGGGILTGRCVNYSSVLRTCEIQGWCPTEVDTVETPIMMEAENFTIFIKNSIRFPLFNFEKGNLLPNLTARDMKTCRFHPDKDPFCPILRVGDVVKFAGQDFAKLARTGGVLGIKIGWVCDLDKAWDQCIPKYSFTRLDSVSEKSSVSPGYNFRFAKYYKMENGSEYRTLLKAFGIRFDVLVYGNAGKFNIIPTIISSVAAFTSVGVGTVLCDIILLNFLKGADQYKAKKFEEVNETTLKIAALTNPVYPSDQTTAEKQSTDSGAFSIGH

P2X purinoceptor 1 = molecular target: T3, P2X purinoceptor 1 (Homo sapiens, UniProt P51575); experiment: Inhibition of P2X1 receptor
T3 sequence (P51575 whole entry): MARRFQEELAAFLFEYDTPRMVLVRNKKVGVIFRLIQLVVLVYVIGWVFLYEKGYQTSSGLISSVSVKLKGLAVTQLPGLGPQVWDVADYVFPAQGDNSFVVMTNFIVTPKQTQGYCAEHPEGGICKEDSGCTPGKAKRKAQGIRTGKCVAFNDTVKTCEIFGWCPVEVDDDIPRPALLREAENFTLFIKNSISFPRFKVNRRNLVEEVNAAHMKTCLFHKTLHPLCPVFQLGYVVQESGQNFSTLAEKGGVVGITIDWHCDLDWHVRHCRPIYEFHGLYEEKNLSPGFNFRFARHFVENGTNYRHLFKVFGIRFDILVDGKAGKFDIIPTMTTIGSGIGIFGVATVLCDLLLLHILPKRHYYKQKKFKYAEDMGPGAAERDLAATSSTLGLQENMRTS

P2X purinoceptor 2 = molecular target: T4, P2X purinoceptor 2 (Homo sapiens, UniProt Q9UBL9); experiment: Inhibition of P2X2 receptor
T4 sequence (Q9UBL9 whole entry): T2 sequence (Q9UBL9 whole entry)

P2X purinoceptor 4 = molecular target: T5, P2X purinoceptor 4 (Homo sapiens, UniProt Q99571); experiment: Inhibition of P2X4 receptor
T5 sequence (Q99571 whole entry): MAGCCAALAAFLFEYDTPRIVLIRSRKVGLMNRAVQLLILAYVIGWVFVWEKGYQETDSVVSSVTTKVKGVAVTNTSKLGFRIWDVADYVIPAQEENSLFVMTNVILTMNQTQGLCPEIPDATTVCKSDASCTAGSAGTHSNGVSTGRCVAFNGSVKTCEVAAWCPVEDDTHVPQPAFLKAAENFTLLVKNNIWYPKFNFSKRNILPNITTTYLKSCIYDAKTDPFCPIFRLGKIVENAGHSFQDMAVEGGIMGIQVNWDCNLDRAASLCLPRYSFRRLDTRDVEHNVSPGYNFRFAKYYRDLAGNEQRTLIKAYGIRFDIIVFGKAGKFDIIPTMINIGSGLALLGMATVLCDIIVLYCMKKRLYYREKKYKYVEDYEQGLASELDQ

P2X purinoceptor 5 = P2X purinoceptor 5 (Homo sapiens, UniProt Q93086); experiment: Inhibition of P2X5 receptor
Sequence of P2X purinoceptor 5 (Q93086 whole entry): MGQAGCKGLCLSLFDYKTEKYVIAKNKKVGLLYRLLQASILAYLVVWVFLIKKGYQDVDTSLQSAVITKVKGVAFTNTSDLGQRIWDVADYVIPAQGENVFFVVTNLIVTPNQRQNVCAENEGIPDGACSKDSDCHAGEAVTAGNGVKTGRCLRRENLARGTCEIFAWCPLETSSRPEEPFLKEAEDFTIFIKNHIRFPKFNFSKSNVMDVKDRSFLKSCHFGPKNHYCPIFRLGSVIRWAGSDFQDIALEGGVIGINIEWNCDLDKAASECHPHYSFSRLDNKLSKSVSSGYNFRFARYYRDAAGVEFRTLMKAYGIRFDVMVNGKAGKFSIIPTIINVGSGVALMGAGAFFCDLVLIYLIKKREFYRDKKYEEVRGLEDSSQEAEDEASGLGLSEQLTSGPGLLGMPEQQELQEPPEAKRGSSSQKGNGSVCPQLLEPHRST

P2X purinoceptor 7 = molecular target: T6, P2X purinoceptor 7 (Homo sapiens, UniProt Q99572); experiment: Inhibition of P2X7 receptor
T6 sequence (Q99572 whole entry): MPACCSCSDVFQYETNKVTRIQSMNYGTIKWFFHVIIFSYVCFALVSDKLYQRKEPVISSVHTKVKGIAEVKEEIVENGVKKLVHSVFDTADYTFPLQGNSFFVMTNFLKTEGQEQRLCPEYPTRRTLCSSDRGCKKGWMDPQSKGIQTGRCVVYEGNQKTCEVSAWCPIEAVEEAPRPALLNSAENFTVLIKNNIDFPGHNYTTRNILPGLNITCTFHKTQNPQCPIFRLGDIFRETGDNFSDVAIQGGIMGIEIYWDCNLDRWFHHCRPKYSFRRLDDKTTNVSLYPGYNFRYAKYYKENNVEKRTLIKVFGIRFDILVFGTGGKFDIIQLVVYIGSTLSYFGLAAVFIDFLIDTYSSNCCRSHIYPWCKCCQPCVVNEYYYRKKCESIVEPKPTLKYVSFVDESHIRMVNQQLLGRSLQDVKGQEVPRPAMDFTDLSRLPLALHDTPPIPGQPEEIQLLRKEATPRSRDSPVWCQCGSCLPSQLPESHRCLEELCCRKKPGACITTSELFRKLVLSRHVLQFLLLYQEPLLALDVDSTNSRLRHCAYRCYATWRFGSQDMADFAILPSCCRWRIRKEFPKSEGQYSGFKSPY

[2] = Inhibition of ML1 receptor
Histamine H2 receptor = Histamine H2 receptor (Homo sapiens, UniProt P25021); experiment: Inhibition of histamine H2 receptor
Sequence of Histamine H2 receptor (P25021 whole entry): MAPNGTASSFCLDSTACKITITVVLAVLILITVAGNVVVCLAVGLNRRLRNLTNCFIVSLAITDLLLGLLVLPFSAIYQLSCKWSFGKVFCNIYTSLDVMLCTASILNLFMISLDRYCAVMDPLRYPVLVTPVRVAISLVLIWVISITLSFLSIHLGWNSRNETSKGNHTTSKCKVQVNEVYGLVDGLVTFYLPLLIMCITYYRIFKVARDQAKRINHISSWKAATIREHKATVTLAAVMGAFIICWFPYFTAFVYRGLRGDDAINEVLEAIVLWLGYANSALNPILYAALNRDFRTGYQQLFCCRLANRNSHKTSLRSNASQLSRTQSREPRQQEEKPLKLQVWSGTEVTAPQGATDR

[3] = molecular target: 5-hydroxytryptamine receptor 2A (Homo sapiens, UniProt P28223); experiment: Inhibition of 5HT2A receptor
Sequence of 5-hydroxytryptamine receptor 2A (P28223 whole entry): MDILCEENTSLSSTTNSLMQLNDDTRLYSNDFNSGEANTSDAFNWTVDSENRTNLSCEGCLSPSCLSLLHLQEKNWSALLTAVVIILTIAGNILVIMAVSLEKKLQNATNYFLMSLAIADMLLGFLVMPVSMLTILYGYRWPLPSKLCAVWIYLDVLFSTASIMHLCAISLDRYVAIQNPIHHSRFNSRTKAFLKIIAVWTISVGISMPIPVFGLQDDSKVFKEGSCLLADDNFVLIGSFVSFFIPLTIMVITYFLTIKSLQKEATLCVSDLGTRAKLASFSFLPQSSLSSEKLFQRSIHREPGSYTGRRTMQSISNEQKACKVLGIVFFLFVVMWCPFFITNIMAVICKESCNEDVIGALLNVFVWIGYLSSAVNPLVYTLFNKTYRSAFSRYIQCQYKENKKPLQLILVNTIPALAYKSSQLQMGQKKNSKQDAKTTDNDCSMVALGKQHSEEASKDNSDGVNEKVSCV

[4] = molecular target: T7, 5-hydroxytryptamine receptor 3A (Homo sapiens, UniProt P46098); experiment: Inhibition of 5HT3 receptor
T7 sequence (P46098 whole entry): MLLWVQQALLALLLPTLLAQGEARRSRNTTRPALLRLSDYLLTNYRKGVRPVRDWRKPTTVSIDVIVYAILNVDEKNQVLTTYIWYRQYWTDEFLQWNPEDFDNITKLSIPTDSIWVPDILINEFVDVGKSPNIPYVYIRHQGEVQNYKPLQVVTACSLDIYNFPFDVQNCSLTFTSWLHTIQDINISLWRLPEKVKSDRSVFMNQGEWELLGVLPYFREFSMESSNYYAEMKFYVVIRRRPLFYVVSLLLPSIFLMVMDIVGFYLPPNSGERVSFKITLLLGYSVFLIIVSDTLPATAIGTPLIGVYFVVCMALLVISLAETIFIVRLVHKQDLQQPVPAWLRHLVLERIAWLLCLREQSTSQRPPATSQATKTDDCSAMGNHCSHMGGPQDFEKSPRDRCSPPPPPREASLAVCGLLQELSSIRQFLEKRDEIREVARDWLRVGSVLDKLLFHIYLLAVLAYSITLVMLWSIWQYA

[5] = molecular target: 5-hydroxytryptamine receptor 6 (Homo sapiens, UniProt P50406); experiment: Inhibition of 5HT6 receptor
Sequence of 5-hydroxytryptamine receptor 6 (P50406 whole entry): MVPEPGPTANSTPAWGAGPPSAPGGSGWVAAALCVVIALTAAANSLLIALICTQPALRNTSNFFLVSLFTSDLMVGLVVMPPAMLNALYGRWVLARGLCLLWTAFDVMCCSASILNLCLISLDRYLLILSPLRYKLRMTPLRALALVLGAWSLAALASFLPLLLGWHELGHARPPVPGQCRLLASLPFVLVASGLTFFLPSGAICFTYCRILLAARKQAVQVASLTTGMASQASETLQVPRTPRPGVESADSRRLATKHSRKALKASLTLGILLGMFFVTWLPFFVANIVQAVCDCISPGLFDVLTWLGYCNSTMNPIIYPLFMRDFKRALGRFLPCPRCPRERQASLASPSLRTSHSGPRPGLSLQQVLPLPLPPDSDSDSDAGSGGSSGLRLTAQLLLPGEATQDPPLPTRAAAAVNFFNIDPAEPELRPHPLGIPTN

[6] = Clearance in dog; assay type: ADME, organism-based, Canis lupus familiaris; details: in vivo
Caco-2 = experiment: Ratio of permeability from basolateral to apical side over apical to basolateral side in human Caco-2 cells; assay type: ADME, cell-based

Row | SMILES | IC50 (P2X purinoceptor 3) [µM] | IC50 [1] [µM] | also measured
1 | COc1ccc(C(C)C)c(Oc2cnc(N)nc2N)c1 | 0.398 | 0.158 | –
2 | COc1cc(C(C)C)c(Oc2cnc(N)nc2N)cc1C | 0.1 | 0.398 | –
3 | COc1cc(C(C)C)c(Oc2cnc(N)nc2N)cc1Cl | 0.0251 | 0.1 | –
4 | COc1cc(C(C)C)c(Oc2cnc(N)nc2N)cc1C#N | 0.631 | 2.51 | –
5 | COc1cc(Cc2cnc(N)nc2N)c(C2CCC2)cc1OC | > 10 | > 10 | –
6 | COc1cc(C(C)C)c(C(O)c2cnc(N)nc2N)cc1OC (stereo not drawn) | > 10 | > 10 | –
7 | COc1cc(C(=O)c2cnc(N)nc2N)c(C(C)C)cc1OC | > 10 | > 10 | –
8 | COc1cc(C(C)C)c(Oc2cnc(N)nc2N)cc1S(C)(=O)=O | 0.1 | 1 | –
9 | COc1cc(C(C)C)c(Oc2cnc(N)nc2N)cc1-c1ncc[nH]1 | 0.158 | 0.631 | –
10 | COc1cc(C(C)C)c(Oc2cnc(N)nc2N)cc1C1=NCCN1 | > 10 | > 10 | –
11 | COc1cc(Oc2cnc(N)nc2N)c(C(C)C)cc1I | 0.0398 | 0.398 | –
12 | COc1cc(C(C)C)c(Oc2cnc(N)nc2N)cc1C(C)C | 0.501 | 2 | –
13 | COc1cc(Cc2cnc(N)nc2N)c(C2CC2)cc1OC | 1.26 | > 10 | –
14 | COc1cc(Cc2cnc(N)nc2N)c(CC(C)C)cc1OC | > 10 | 10 | –
15 | CCc1cc(OC)c(OC)cc1Cc1cnc(N)nc1N | – | > 10 | –
16 | COc1cc(Cc2cnc(N)nc2N)c(C(C)C)cc1OC | – | 2 | –
17 | CCc1cc(OC)c(OC)cc1Oc1cnc(N)nc1N | 0.158 | 2 | –
18 | COc1cc(Oc2cnc(N)nc2N)c(C(C)C)cc1OC | 0.0251 | – | –

Row | SMILES | IC50 (P2X purinoceptor 3) [µM] | IC50 [1] [µM] | also measured
19 | CC(C)c1ccccc1Oc1cnc(N)nc1N | 3.98 | 2 | –
20 | COc1cc(Oc2cnc(N)nc2N)c(C(C)C)cc1C#N | > 10 | > 10 | –
21 | COc1cc(C(C)C)c(Oc2cnc(N)nc2N)cc1F | 3.16 | 1.58 | –
22 | COc1cc(C(C)C)c(Oc2cnc(N)nc2N)cc1-c1ccccc1 | 1 | 2.51 | –
23 | COc1cc(C(C)C)c(Oc2cnc(N)nc2N)cc1Br | 0.02 | 0.0794 | –
24 | C#Cc1cc(Oc2cnc(N)nc2N)c(C(C)C)cc1OC | – | 0.0126 | –
25 | COc1cc(Cc2cnc(N)nc2N)c(C(C)(C)C)cc1OC | – | > 10 | –
26 | COc1cc(C(C)C)c(Oc2cnc(N)nc2N)cc1C(=O)O | 0.158 | 0.316 | –
27 | CCc1cc(Oc2cnc(N)nc2N)c(C(C)C)cc1OC | 0.0501 | 0.158 | –
28 | COc1ccc(Oc2cnc(N)nc2N)c(C(C)C)c1 | 1.58 | 0.398 | –
29 | CCc1cc(OC)c(OC)cc1CCc1cnc(N)nc1N | > 10 | > 10 | –
30 | COc1cc(C(C)C)c(Oc2cnc(N)nc2N)cc1C(N)=O | 0.1 | 1.58 | –
31 | COc1cc(C(C)C)c(Oc2cnc(N)nc2N)cc1-c1nnn[nH]1 | 0.0398 | 0.316 | –
32 | COc1cc(Oc2cnc(N)nc2N)c(C(C)C)cc1-c1ccc(F)cc1 | 2.51 | 7.94 | –
33 | COc1cc(Oc2cnc(N)nc2N)c(C(C)C)cc1Br | 0.0794 | 0.316 | –
34 | CCCc1cc(OC)c(OC)cc1Cc1cnc(N)nc1N | – | > 10 | –
35 | COc1cc(C(C)C)c(Oc2cnc(N)nc2N)cc1I | – | 0.0794 | pIC50 (P2X purinoceptor 3; cho): 8; IC50 (P2X purinoceptor 1): > 10 µM; IC50 (P2X purinoceptor 2): > 10 µM; IC50 (P2X purinoceptor 4): > 10 µM; IC50 (P2X purinoceptor 5): > 10 µM; IC50 (P2X purinoceptor 7): > 10 µM; Ki [2]: 1 µM; Ki (Histamine H2 receptor): 1 µM; Ki [3]: 1 µM; Ki [4]: 1 µM; Ki [5]: 1 µM; clearance [6]: 13 mL/min/kg; Ratio (Caco-2): 1
36 | COc1cc(C)c(Cc2cnc(N)nc2N)cc1OC [ORMETOPRIM] | > 10 | > 10 | –
